The values below come from US20100069441A1, “ANTIMICROBIAL INDOLINE COMPOUNDS FOR TREATMENT OF BACTERIAL INFECTIONS” (priority 2008, published 2010).

≈ marks a conversion by molar mass, not a printed value. Read-outs that look alike come from different tables or passages of the source. Some results are limits rather than exact numbers.

The test system of data set [1] is human CD34+ bone marrow cells. Put plainly: Bone marrow CD34+ cell growth inhibition (myelosuppressive potential), luminescence assay. The class given is cell-based. The note with it: normalized IC50 ratio over reference compound of Example 18; incubation 9-10 days; higher ratio = reduced myelosuppression. As to the method: Myelosuppressive potential (hematopoietic or bone marrow toxicity) was evaluated using human CD34^+ bone marrow cells, generally following methods described by Leach in International Patent Publication No. WO 2006/097828. Thus, an oxazolidinone compound was incubated with fresh human bone marrow cells for 9-10 days at 37° C. in 5% CO2 atmosphere. At end of the incubation period, the bone marrow toxicity was accessed by measuring inhibition (IC50, μg/mL) of CD34^+ cell growth using a luminescence assay. Lower IC50 value indicates a higher myelosuppression potential with enhanced probability of undesired adverse effects in vivo, while a higher IC50 value indicates reduced bone marrow toxicity. For comparison, the data are represented as normalized IC50 ratio indicating the fold of improvement over the reference compound of Example 18, based on IC50 for each compound in the CD34 assay.

Data set [2] deals with methicillin-resistant Staphylococcus aureus (MRSA; from the Massachusetts General Hospital, USA). Put plainly: Antibacterial activity (MIC) against MRSA clinical isolate. Format: cell-based. The conditions noted are these: clinical isolate of MRSA, agar dilution. The text has this: Compounds of this invention can have useful activity against a variety of pathogenic microorganisms. The in vitro activity of compounds of this invention can be assessed by standard testing procedures such as the determination of minimum inhibitory concentration (MIC) by agar dilution as described in “Approved Standard. Methods for Dilution Antimicrobial Susceptibility Tests for Bacteria That Grow Aerobically”, 3rd. ed., published 1993 by the National Committee for Clinical Laboratory Standards, Villanova, Pennsylvania, USA. Minimum inhibitory concentration (MIC) refers to the lowest concentration of drug (μg/mL) that inhibits visible growth of the organism. Lower MIC values indicate a higher antibacterial activity. […] The useful activity of compounds of the present invention against a clinical isolate of methicillin-resistant Staphylococcus aureus (MRSA; from the Massachusetts General Hospital, USA) is illustrated by the MIC data of Table 1.

Another data set has as its system S. aureus. Put plainly: In vivo antibacterial efficacy (ED50) in mice infected intraperitoneally. The conditions noted are these: Staphylococcus aureus, po. As to the method: Determination of in vivo efficacy was performed by inoculating mice intraperitoneally with cultures of infecting organism using Linezolid as control. The compound was dissolved in DMSO with 20% cyclodextrin, diluted with deionized water, and administered orally (p.o.). The mice were dosed 1 hours after infection. Mortality was recorded after 72 hours. The 50% effective dose (ED50, mg/kg) was calculated at the end of the test.

Data set [3] concerns the target T1, Human monoamine oxidase (MOA) A type enzyme (Homo sapiens, UniProt P21397).
T1 construct: purchased BD Gentest
T1 sequence (P21397 1-527): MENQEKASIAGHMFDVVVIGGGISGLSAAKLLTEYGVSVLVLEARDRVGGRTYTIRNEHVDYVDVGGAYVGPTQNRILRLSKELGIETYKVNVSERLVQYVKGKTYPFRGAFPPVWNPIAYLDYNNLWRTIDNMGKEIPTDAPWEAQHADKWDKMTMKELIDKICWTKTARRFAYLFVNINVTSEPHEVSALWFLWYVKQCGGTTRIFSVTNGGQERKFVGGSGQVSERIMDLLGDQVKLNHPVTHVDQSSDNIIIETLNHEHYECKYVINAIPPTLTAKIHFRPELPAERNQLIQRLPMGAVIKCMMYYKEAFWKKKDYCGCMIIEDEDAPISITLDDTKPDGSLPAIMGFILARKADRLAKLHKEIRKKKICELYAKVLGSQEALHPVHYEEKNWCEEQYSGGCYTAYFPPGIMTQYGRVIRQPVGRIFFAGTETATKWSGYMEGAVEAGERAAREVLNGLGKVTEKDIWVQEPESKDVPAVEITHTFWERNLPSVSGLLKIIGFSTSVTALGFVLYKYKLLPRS
Put plainly: Monoamine oxidase A inhibition (MAO-Glo assay). Format: biochemical. The note with it: MAO-Glo kit. As to the method: Human monoamine oxidase (MOA) A type enzyme inhibition activity for select compounds was measured using a commercial MAO assay kit MAO-Glo™ from Promega Co. (USA). The assay was performed as described in the company's technical bulletin “MAO-Glo™ Assay”. The protocol involves an incubation of the MAO A enzyme (BD Gentest™) with a luminogenic MAO substrate to produce an enzymatic product which is converted to luciferin by a coupled reaction. The released luciferin undergoes further transformation to generate light that is detected and measured. The amount of the light is directly proportional to the activity of MAO. Percent inhibition at several concentrations is established relative to the uninhibited control rate, and the IC50 (μg/mL) values are calculated. […] The MAO inhibition data for select compound of this invention are illustrated in the Table 3 below.

Where [4] appears, read: mice, p.o., dosed 1 hour after infection, mortality recorded after 72 hours, read-out: ED50.

Take `CC(=O)NC[C@@H]1OC(=O)N2c3ccc(-c4ccc(-c5cc(CO)on5)nc4)cc3C[C@H]12` [Example 17]: the “CD34 IC50 RATIO” value in data set [1] is 4.5. This compound returned a minimal inhibitory concentration (MIC) in data set [2] of 1 µg/mL (≈ 2.38 µM).

Consider `Cc1nnc(-c2ccc(-c3ccc4c(c3)C[C@H]3[C@H](CO)OC(=O)N43)cn2)o1` [Example 23], for which, in data set [1], the “CD34 IC50 RATIO” value was found to be 2.5. The 50% effective dose (ED50) in the data set on S. aureus (setting [4]) was determined as 5.3 mg/kg. Besides, the MIC in data set [2] is 0.25 µg/mL (≈ 0.686 µM).

On to `Cn1nnc(-c2ccc(-c3ccc4c(c3)C[C@H]3[C@H](COP(=O)([O-])[O-])OC(=O)N43)cn2)n1.[Na+].[Na+]` [Example 5], for which, in the data set on S. aureus (setting [4]), the 50% effective dose (ED50) is 5.6 mg/kg.

As for `CC(=O)NC[C@@H]1OC(=O)N2c3ccc(-c4ccc(-n5cc(C(C)(C)O)nn5)nc4)cc3C[C@@H]12` [Example 12], the “CD34 IC50 RATIO” value in data set [1] worked out at 2.5. In data set [2], this compound gave an MIC of 1 µg/mL (≈ 2.23 µM).

As to `CC(=O)NC[C@@H]1OC(=O)N2c3ccc(-c4ccc(-c5noc(C)n5)nc4)cc3C[C@@H]12` [Example 14], in data set [1], the “CD34 IC50 RATIO” value was found to be 2.0. In data set [3], this compound showed an IC50 greater than 247 µM. In data set [2], this compound gave an MIC of 1 µg/mL (≈ 2.47 µM).

In the case of `Cn1ncc(-c2ccc(-c3ccc4c(c3)C[C@H]3[C@H](CO)OC(=O)N43)cn2)n1` [Example 22], the “CD34 IC50 RATIO” value in data set [1] is reported as 8.3.

For the compound `Cc1cnnn1-c1ccc(-c2ccc3c(c2)C[C@H]2[C@H](CO)OC(=O)N32)cn1` [Example 20], in data set [1], the “CD34 IC50 RATIO” value is listed as 14.8.

In data set [3], `COC(=O)NC[C@@H]1OC(=O)N2c3ccc(-c4ccc(-c5nnn(C)n5)nc4)cc3C[C@@H]12` [Example 7] yielded an IC50 greater than 237 µM. Also, in data set [2], the MIC was determined as 1 µg/mL (≈ 2.37 µM).

Take `Cn1nnc(-c2ccc(-c3ccc4c(c3)C[C@H]3[C@H](CO)OC(=O)N43)cn2)n1` [Example 1]: the “CD34 IC50 RATIO” value in data set [1] is recorded as 4.6. In addition, the ED50 in the data set on S. aureus (setting [4]) came out at 4.2 mg/kg. Also, inhibition of growth in data set [2] (MIC) required 0.5 µg/mL (≈ 1.37 µM).

`O=C1O[C@@H](CO)[C@@H]2Cc3cc(-c4ccc(-n5cnnn5)nc4)ccc3N12` [Example 3]: in the data set with S. aureus (setting [4]), the ED50 was 3.3 mg/kg. In data set [2], this compound came in with an MIC of 0.25 µg/mL (≈ 0.714 µM).

On to `N#CCn1nnc(-c2ccc(-c3ccc4c(c3)C[C@H]3[C@H](CO)OC(=O)N43)cn2)n1` [Example 21], for which the “CD34 IC50 RATIO” value in data set [1] amounted to 2.3. For the same compound, the ED50 in the data set with S. aureus (setting [4]) stood at 9.5 mg/kg. 0.25 µg/mL (≈ 0.642 µM) was the least that counted as inhibitory in data set [2] (MIC).

Compound `Cc1nnc(-c2ccc(-c3ccc4c(c3)C[C@H]3[C@H](COP(=O)([O-])[O-])OC(=O)N43)cn2)o1.[Na+].[Na+]` [Example 32] came in with an ED50 in the data set on S. aureus of 10 mg/kg.

`CC(=O)NC[C@@H]1OC(=O)N2c3ccc(-c4cccnc4)cc3C[C@H]12` [Example 18, reference compound]: the “CD34 IC50 RATIO” value in data set [1] came out at 1.

With `O=C1O[C@@H](CO)[C@@H]2Cc3cc(-c4ccc(-n5cc(CF)nn5)nc4)ccc3N12` [Example 27], the “CD34 IC50 RATIO” value in data set [1] worked out at 1.6. In addition, the MIC in data set [2] worked out at 0.25 µg/mL (≈ 0.656 µM).

As for `CC(=O)NC[C@@H]1OC(=O)N2c3ccc(-c4ccc(-n5cc(C)nc5C)nc4)cc3C[C@H]12` [Example 15], the MIC in data set [2] was 4 µg/mL (≈ 9.58 µM).

Regarding `CC(=O)NC[C@@H]1OC(=O)N2c3ccc(-c4ccc(-n5cc(CO)nn5)nc4)cc3C[C@H]12` [Example 13], the “CD34 IC50 RATIO” value in data set [1] was 2.5. The same compound showed an IC50 in data set [3] greater than 238 µM. The compound also yielded an MIC in data set [2] of 1 µg/mL (≈ 2.38 µM).

The compound `CC(=O)NC[C@H]1CN(c2ccc(N3CCOCC3)c(F)c2)C(=O)O1` [Linezolid, linezolid, reference compound] gave an IC50 in data set [3] of 12.2 µM. Further, 2 µg/mL (≈ 5.93 µM) was the least that counted as inhibitory in data set [2] (MIC).

Consider `Cn1nnnc1-c1ccc(-c2ccc3c(c2)C[C@H]2[C@H](CO)OC(=O)N32)cn1` [Example 2], for which the “CD34 IC50 RATIO” value in data set [1] turned out to be 3.3. In the data set with S. aureus (setting [4]), the ED50 came to 6.1 mg/kg. In data set [2], this compound displayed an MIC of 0.5 µg/mL (≈ 1.37 µM).

For the compound `N#CCc1cn(-c2ccc(-c3ccc4c(c3)C[C@H]3[C@H](CO)OC(=O)N43)cn2)nn1` [Example 24], the “CD34 IC50 RATIO” value in data set [1] stood at 1.6. Further, the ED50 in the data set on S. aureus (setting [4]) was found to be 9.8 mg/kg. The compound further showed an MIC in data set [2] of 0.25 µg/mL (≈ 0.644 µM).

Regarding `Cn1cc(-c2ccc(-c3ccc4c(c3)C[C@H]3[C@H](CO)OC(=O)N43)cn2)nn1` [Example 26], in data set [1], the “CD34 IC50 RATIO” value is reported as 11.4. In data set [2], this compound showed an MIC of 1 µg/mL (≈ 2.75 µM).

In the case of `Cc1nnn(-c2ccc(-c3ccc4c(c3)C[C@H]3[C@H](CO)OC(=O)N43)cn2)c1C` [Example 29], in data set [1], the “CD34 IC50 RATIO” value amounted to 15.5. In data set [2], this compound displayed a minimum inhibitory concentration (MIC) of 1 µg/mL (≈ 2.65 µM).

For the compound `Cn1nncc1-c1ccc(-c2ccc3c(c2)C[C@H]2[C@H](CO)OC(=O)N32)cn1` [Example 25], the “CD34 IC50 RATIO” value in data set [1] came out at 4.9. Further, the ED50 in the data set with S. aureus (setting [4]) stood at 9.6 mg/kg. For the same compound, the MIC in data set [2] amounted to 0.25 µg/mL (≈ 0.688 µM).

For the compound `O=C1OCCN1c1ccc(-c2ccc3c(c2)C[C@H]2[C@H](CO)OC(=O)N32)cn1` [Example 28], in data set [1], the “CD34 IC50 RATIO” value is 2.3. In data set [2], this compound showed an MIC of 0.25 µg/mL (≈ 0.681 µM).

For the compound `Cc1cn(-c2ccc(-c3ccc4c(c3)C[C@H]3[C@H](CO)OC(=O)N43)cn2)nn1` [Example 30], the “CD34 IC50 RATIO” value in data set [1] was 4.1. This compound returned an MIC in data set [2] of 0.25 µg/mL (≈ 0.688 µM).

In turn, `Cn1nncc1-c1ccc(-c2ccc3c(c2)C[C@H]2[C@H](COP(=O)([O-])[O-])OC(=O)N32)cn1.[Na+].[Na+]` [Example 33] yielded an ED50 in the data set on S. aureus of 9.1 mg/kg.

`CC(=O)NC[C@@H]1OC(=O)N2c3ccc(-c4ccc(-n5cncn5)nc4)cc3C[C@H]12` [Example 16] gave an IC50 in data set [3] of 43 µM. The compound also registered a minimum inhibitory concentration (MIC) in data set [2] of 0.5 µg/mL (≈ 1.28 µM).

As for `N#CCc1cn(-c2ccc(-c3ccc4c(c3)C[C@H]3[C@H](COP(=O)([O-])[O-])OC(=O)N43)cn2)nn1.[Na+].[Na+]` [Example 39], the ED50 in the data set with S. aureus (setting [4]) came out at 10 mg/kg.
